Experimental data reported in patent US3930838A, “S-benzyl-N,N-disec-butylthiocarbamate and its use as a rice field herbicide and a rice growth stimulant” (priority 1970, dated 1976).

Key:
rice [1] = test: Outdoor comparison of rice stimulating action of M3432 with lower homologues and isomers (Example 11); format: in vivo; conditions: 21 days after sowing
Experimental: In the province of Pavia, a test was carried out with outdoor treatments in a loam soil, on rice plots having a 12 m^2 surface each.
Formulations of 20% M3432 in emulsifiable oil were compared with 20% formulations in emulsifiable oil of S-benzyl-N,N-diisopropyl thiocarbamate; S-benzyl-N,N-diisobutylthiocarbamate; and S-benzyl-N,N-din.butylthiocarbamate employing quantities of 4, 6 and 20 kg./ha.
For each treatment, the results were gathered on 20 plants 21 days after the sowing.

rats = conditions: os, literature values; cited from earlier work
rice [2] = conditions: Belgian Pat. No. 728,265; cited from earlier work
mice = conditions: os, literature values; cited from earlier work

| SMILES | Main roots (rice [1]; 4 kg./ha.) [No.] | Secondary roots (rice [1]; 4 kg./ha.) [No.] | Shoot (rice [1]; 4 kg./ha.) [cm.] | Main roots (rice [1]; 6 kg./ha.) [No.] | Secondary roots (rice [1]; 6 kg./ha.) [No.] | Shoot (rice [1]; 6 kg./ha.) [cm.] | Main roots (rice [1]; 20 kg./ha.) [No.] | Secondary roots (rice [1]; 20 kg./ha.) [No.] | Shoot (rice [1]; 20 kg./ha.) [cm.] | Acute toxicity LD50 (rats) [mg/kg] | also measured |
| --- | --- | --- | --- | --- | --- | --- | --- | --- | --- | --- | --- |
| CC(C)CN(CC(C)C)C(=O)SCc1ccccc1 [S-benzyl-N,N-diisobutylthiocarbamate] | 3.21 | 1.68 | 5.25 | 2.76 | 1.57 | 4.21 | 2.59 | 1.52 | 3.96 | – | – |
| COC(=O)Nc1ccc(Cl)c(Cl)c1 [Swep, methyl-N-(3,4-dichlorophenyl)carbamate] | – | – | – | – | – | – | – | – | – | 552 | – |
| CCN(CC)C(=O)SCc1ccccc1 [S-benzyl-N,N-diethylthiocarbamate] | – | – | – | – | – | – | – | – | – | – | Aggressiveness towards rice compared with ring-substituted monothiocarbamates (rice [2]): more aggressive towards the rice |
| CC(C)N(C(=O)SCc1ccccc1)C(C)C [S-benzyl-N,N-diisopropylthiocarbamate, S-benzyl-N,N-diisopropyl thiocarbamate] | 3.45 | 2.52 | 5.36 | 3.67 | 1.63 | 5.44 | 2.79 | 1.21 | 4.03 | – | – |
| CCN(CC)C(=O)SCc1ccc(Cl)cc1 [Saturn, S(4-chlorobenzyl)N,N-diethylthiocarbamate] | – | – | – | – | – | – | – | – | – | – | Acute toxicity LD50 (mice): 560 mg/kg |
| Oc1c(Cl)c(Cl)c(Cl)c(Cl)c1Cl [Pentachlorophenol] | – | – | – | – | – | – | – | – | – | 78 to 280 | – |
| O=[N+]([O-])c1ccc(Oc2ccc(Cl)cc2Cl)cc1 [Nitrofen, 2,4-dichlorophenyl-4'-nitrophenylether] | – | – | – | – | – | – | – | – | – | 3000 | – |
| CCCCN(CCCC)C(=O)SCc1ccccc1 [S-benzyl-N,N-din.butyl-thiocarbamate, S-benzyl-N,N-din.butylthiocarbamate] | 3.26 | 1.78 | 4.76 | 2.81 | 1.94 | 5.24 | 1.94 | 2.05 | 2.34 | – | – |
| CCC(=O)Nc1ccc(Cl)c(Cl)c1 [Propanil, N(3,4-dichlorophenyl)-propionamide] | – | – | – | – | – | – | – | – | – | 1384 | – |
